# Experimental data taken from EP4667467A1, “PROTAC DEGRADERS OF MLLT1 AND/OR MLLT3” (Dark Blue Therapeutics Ltd, priority 2024, dated 2025).
# Molecular target: T1, MLLT1 (Homo sapiens, UniProt Q03111)
# T1 construct: endogenous in cells; host or cells: MV4-11 (ATCC CRL-9591)
# T1 sequence (Q03111 1-559): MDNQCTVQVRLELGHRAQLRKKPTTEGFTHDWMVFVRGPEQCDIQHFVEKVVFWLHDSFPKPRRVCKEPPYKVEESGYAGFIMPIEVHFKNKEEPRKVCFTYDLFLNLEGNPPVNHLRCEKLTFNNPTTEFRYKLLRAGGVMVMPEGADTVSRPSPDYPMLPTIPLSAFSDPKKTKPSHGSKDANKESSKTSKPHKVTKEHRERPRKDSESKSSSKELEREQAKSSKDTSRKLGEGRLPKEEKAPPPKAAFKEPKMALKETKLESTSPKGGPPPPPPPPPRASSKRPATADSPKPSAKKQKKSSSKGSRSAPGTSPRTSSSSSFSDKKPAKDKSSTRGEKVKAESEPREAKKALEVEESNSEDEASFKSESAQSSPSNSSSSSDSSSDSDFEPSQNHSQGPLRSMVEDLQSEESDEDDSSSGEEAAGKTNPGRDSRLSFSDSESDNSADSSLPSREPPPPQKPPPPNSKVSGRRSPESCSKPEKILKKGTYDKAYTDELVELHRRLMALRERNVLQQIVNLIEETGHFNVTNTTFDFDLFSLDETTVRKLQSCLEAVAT
# Experiment: MLLT1 Degradation Assay (JESS automated chemiluminescent detection, MV4-11 cells)
# Format: cell-based
# Settings: 24h, with respect to DMSO control; for MLLT1 % Degradation @ 0.01 µM: 0.01 µM (10 nM) test compound; for MLLT1 % Degradation @ 0.1 µM: 0.1 µM (100 nM) test compound; for MLLT 1 % Degradation @ 1 µM: 1 µM (1000 nM) test compound
# In short: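 MV4-11 cells were treated for 24 h at 37 °C, 5% CO2 with compound at 1000, 100 and 10 nM (0.1% DMSO). MLLT1 was quantified by automated capillary chemiluminescent immunodetection (JESS). Band peak areas were expressed as % degradation relative to DMSO control.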
Compound,MLLT1 % Degradation @ 0.01 µM,MLLT1 % Degradation @ 0.1 µM,MLLT 1 % Degradation @ 1 µM
"CN1CCC[C@@H]1c1cc2cnc(NC(=O)c3ccc(N4CCC(c5ccc(-c6cccc7c6CN(C6CCC(=O)NC6=O)C7=O)cc5)CC4)nc3)cc2[nH]1 (stereo partly drawn) [Example 67, 6-(4-(4-(2-(2,6-dioxopiperidin-3-yl)-1-oxoisoindolin-4-yl)phenyl)piperidin-1-yl)-N-(2-((R)-1-methylpyrrolidin-2-yl)-1H-pyrrolo[3,2-c]pyridin-6-yl)nicotinamide]",A (Category A: A ≥ 75% degradation),A (Category A: A ≥ 75% degradation),A (Category A: A ≥ 75% degradation)
"CN1CCC[C@@H]1c1[nH]c2cc(NC(=O)c3ccc(CCCCC#Cc4cccc5c4CN(C4CCC(=O)NC4=O)C5=O)nc3)ncc2c1Cl (stereo partly drawn) [Example 71, N-(3-chloro-2-((R)-1-methylpyrrolidin-2-yl)-1H-pyrrolo[3,2-c]pyridin-6-yl)-6-(6-(2-(2,6-dioxopiperidin-3-yl)-1-oxoisoindolin-4-yl)hex-5-yn-1-yl) nicotinamide]",A (Category A: A ≥ 75% degradation),A (Category A: A ≥ 75% degradation),B (Category B: 50% ≤ B < 75% degradation)
"CN1CCC[C@@H]1c1[nH]c2cc(NC(=O)c3ccc(N4CCN(CC#Cc5cccc6c5CN(C5CCC(=O)NC5=O)C6=O)CC4)nc3)ncc2c1Cl (stereo partly drawn) [Example 72, N-(3-chloro-2-((R)-1-methylpyrrolidin-2-yl)-1H-pyrrolo[3,2-c]pyridin-6-yl)-6-(4-(3-(2-(2,6-dioxopiperidin-3-yl)-1-oxoisoindolin-4-yl)prop-2-yn-1-yl)piperazin-1-yl)nicotinamide]",A (Category A: A ≥ 75% degradation),A (Category A: A ≥ 75% degradation),C (Category C: 25% ≤ C < 50% degradation)
"CCN1CCC[C@@H]1c1cc2cnc(NC(=O)c3ccc(N4CCC(CC#Cc5cccc6c5CN(C5CCC(=O)NC5=O)C6=O)CC4)nc3)cc2[nH]1 (stereo partly drawn) [Example 73, 6-(4-(3-(2-(2,6-dioxopiperidin-3-yl)-1-oxoisoindolin-4-yl)prop-2-yn-1-yl)piperidin-1-yl)-N-(2-((R)-1-ethylpyrrolidin-2-yl)-1H-pyrrolo[3,2-c]pyridin-6-yl)nicotinamide]",B (Category B: 50% ≤ B < 75% degradation),A (Category A: A ≥ 75% degradation),B (Category B: 50% ≤ B < 75% degradation)
"CCN1CCC[C@@H]1c1cc2cnc(NC(=O)c3ccc(CCCCC#Cc4cccc5c4CN(C4CCC(=O)NC4=O)C5=O)nc3)cc2[nH]1 (stereo partly drawn) [Example 74, 6-(6-(2-(2,6-dioxopiperidin-3-yl)-1-oxoisoindolin-4-yl)hex-5-yn-1-yl)-N-(2-((R)-1-ethylpyrrolidin-2-yl)-1H-pyrrolo [3,2-c]pyridin-6-yl) nicotinamide]",B (Category B: 50% ≤ B < 75% degradation),B (Category B: 50% ≤ B < 75% degradation),B (Category B: 50% ≤ B < 75% degradation)
"CN1CCC[C@@H]1c1cc2cnc(NC(=O)c3ccc(N4CCC(C5CCN(c6cccc7c6CN(C6CCC(=O)NC6=O)C7=O)CC5)CC4)nc3)cc2[nH]1 (stereo partly drawn) [Example 75, 6-(1'-(2-(2,6-dioxopiperidin-3-yl)-1-oxoisoindolin-4-yl)-[4,4'-bipiperidin]-1-yl)-N-(2-((R)-1-methylpyrrolidin-2-yl)-1H-pyrrolo[3,2-c]pyridin-6-yl)nicotinamide]",A (Category A: A ≥ 75% degradation),A (Category A: A ≥ 75% degradation),A (Category A: A ≥ 75% degradation)
